Source: patent publication US9487489B2, “Halogen-substituted pyrazole derivatives as pest-control agents” (BAYER CROPSCIENCE AKTIENGESELLSCHAFT, priority 2013, dated 2016)

Key:
[1] = system: adult cat fleas (Ctenocephalides felis); test: Ctenocephalides felis oral test (CTECFE); type: in vivo; conditions: application rate 100 ppm in citrated cattle blood; after 2 days
Procedure, shortened: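 Mortality read at 2 days as percent of fleas killed. Compound predissolved in DMSO, diluted into citrated cattle blood and offered to roughly 20 unfed adult C. felis via parafilm membrane feeder.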

[2] = system: caterpillars of the armyworm (Spodoptera frugiperda); test: Spodoptera frugiperda spray test (SPODFR); type: in vivo; conditions: maize leaf discs, after 7 days
Procedure, shortened: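 Percent kill read at day 7 on caterpillar-infested maize leaf discs. Discs were first sprayed with aqueous emulsifier-containing (1000 ppm) preparations made from acetone/dimethylformamide solutions, and dried. Scale: 0% none dead, 100% all dead.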

[3] = logP determination by HPLC on a reversed-phase column (C18), EEC Directive 79/831 Annex V.A8; type: physicochemical; conditions: HPLC on reversed-phase column (C18), acetonitrile/water with formic acid, EEC Directive 79/831 Annex V.A8
Procedure, shortened: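 Per EEC 79/831 Annex V.A8, values derive from HPLC retention at 2.0 ml/min and 55° C on a 50*4.6 C18 column. The 10→95% acetonitrile gradient (0.1%/0.09% formic acid) lasted 4.25 min plus a 1.25 min hold; mass detection was by MSD.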

[4] = system: larvae of the mustard beetle (Phaedon cochleariae); test: Phaedon cochleariae spray test (PHAECO); type: in vivo; conditions: Chinese cabbage leaf discs, after 7 days
Procedure, shortened: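 Kill of mustard beetle larvae is read as % mortality 7 days after spraying. Spray liquid: active compound in acetone plus dimethylformamide, brought up with water holding 1000 ppm alkylaryl polyglycol ether emulsifier and diluted further in emulsifier-water.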

[5] = system: engorged adult female cattle ticks (Boophilus microplus); test: Boophilus microplus injection test (BOOPMI Inj); type: in vivo; conditions: application rate 20 μg/animal; injection into abdomen; assessed after 7 days
Procedure, shortened: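 Efficacy is read at 7 days as fertile egg laying (100% = no fertile eggs laid; 0% = all eggs fertile), with eggs of unclear fertility stored until larvae hatch at about 42 days. Five engorged adult females per dose each receive an abdominal injection of 1 μl compound dissolved in DMSO.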

[6] = system: L1 larvae of the Australian sheep blowfly (Lucilia cuprina); test: Lucilia cuprina test (LUCICU); type: in vivo; conditions: application rate 100 ppm; after 2 days
Procedure, shortened: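 Percent mortality read at 2 days; 100% = all larvae killed, 0% = none. Test compound, predissolved in DMSO and water-diluted to the wanted level, was mixed into minced horsemeat holding roughly 20 first-instar larvae.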

[7] = system: adult cat fleas (Ctenocephalides felis); test: Ctenocephalides felis in vitro contact test with adult cat fleas (T1); conditions: after 48 h
Procedure, shortened: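 Adult cat fleas (Ctenocephalides felis), 5-10 per tube, were exposed to the inner surface of 25 ml test tubes coated with compound in acetone. Tubes were incubated lying flat under ambient conditions. Efficacy was then read by standing tubes upright and knocking the fleas to the floor. Fleas that stayed motionless or moved uncoordinatedly counted as dead or moribund, where 100% means all fleas dead or moribund and 0% means none harmed.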

[8] = system: adult houseflies (Musca domestica); test: Musca domestica test (MUSCDO); type: in vivo; conditions: application rate 100 ppm; after 2 days
Procedure, shortened: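 Groups of 10 adult Musca domestica exposed to a sugar-soaked sponge treated with the water-diluted DMSO preparation of compound at the chosen concentration. Percent kill read at day 2, where 0% means no flies killed and 100% all killed.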

[9] = system: cattle ticks (Boophilus microplus) Parkhurst strain, SP-resistant; test: Boophilus microplus dip test (BOOPMI Dip); type: in vivo; conditions: application rate 100 ppm, assessed after 7 days
Procedure: B. Boophilus microplus-dip Test (BOOPMI Dip)
Test animals: cattle ticks (Boophilus microplus) Parkhurst strain, SP-resistant
Solvent: dimethyl sulphoxide
10 mg of active compound are dissolved in 0.5 ml of dimethyl sulphoxide. For the purpose of preparing a suitable formulation, the active compound solution is diluted with water to the concentration desired in each case.
This active compound preparation is pipetted into tubes. 8-10 adult engorged female cattle ticks (Boophilus microplus) are transferred into a further tube with holes. The tube is immersed into the active compound formulation, and all ticks are completely wetted. After the liquid has run out, the ticks are transferred on filter discs into plastic dishes and stored in a climate-controlled room.
The activity is assessed after 7 days by laying of fertile eggs. Eggs whose fertility is not visible from the outside are stored in a climate-controlled cabinet until the larvae hatch after about 42 days. An efficacy of 100% means that none of the ticks has laid any fertile eggs; 0% means that all eggs are fertile.

[10] = system: greenhouse red spider mite (Tetranychus urticae); test: Tetranychus urticae spray test, OP-resistant (TETRUR); type: in vivo; conditions: bean leaf discs, after 6 days
Procedure, shortened: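 Percent kill, scored 6 days post-spray (0% = none dead, 100% = all dead), on Phaseolus vulgaris leaf discs infested with every life stage of the OP-resistant spider mite. Compound dissolved in acetone plus DMF, diluted to test concentration with emulsifier-containing water (1000 ppm).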

[11] = system: green peach aphid (Myzus persicae); test: Myzus persicae spray test (MYZUPE); type: in vivo; conditions: Chinese cabbage leaf discs, after 6 days
Procedure: G. Myzus persicae-spray Test (MYZUPE)
Solvents: 78 parts by weight of acetone
• 1.5 parts by weight of dimethylformamide Emulsifier: alkylaryl polyglycol ether
To produce a suitable preparation of active compound, 1 part by weight of active compound is dissolved using the stated parts by weight of solvent and made up with water comprising an emulsifier concentration of 1000 ppm until the desired concentration is reached. To produce further test concentrations, the preparation is diluted with emulsifier-containing water.
Discs of Chinese cabbage leaves (Brassica pekinensis) infested by all stages of the green peach aphid (Myzus persicae) are sprayed with an active compound preparation of the desired concentration.
After 6 days, the efficacy in % is determined 100% here means that all of the aphids have been killed; 0% means that no aphids have been killed.

[12] = system: adult dog ticks (Rhipicephalus sanguineus); test: Rhipicephalus sanguineus in vitro contact test with adult brown dog ticks (T2); conditions: after 48 h
Procedure, shortened: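 Acetone solutions coated onto test tube walls and floor, giving 5 μg/cm^2 at 900 ppm. Five to ten adult ticks held per tube in the dark at room temperature for 48 h, then heated at 45-50° C for up to 5 min; efficacy is the percentage of dead or moribund ticks unable to climb away.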

SMILES | efficacy (kill in %) [1] [%] | efficacy in % ([2]; application rate 100 g/ha) [%] | logP [3] | efficacy in % ([4]; application rate 100 g/ha) [%] | efficacy (laying of fertile eggs) [5] [%] | efficacy (kill in %) [6] [%] | efficacy (dead or moribund fleas) ([7]; application rate 1 μg/cm^2) [%] | efficacy (dead or moribund fleas) ([7]; application rate 5 μg/cm^2) [%] | efficacy (kill in %) [8] [%] | efficacy (laying of fertile eggs) [9] [%] | efficacy in % ([2]; application rate 500 g/ha) [%] | efficacy in % ([4]; application rate 500 g/ha) [%] | efficacy in % ([10]; application rate 500 g/ha) [%] | efficacy in % ([11]; application rate 500 g/ha) [%] | efficacy (dead or moribund ticks) ([12]; application rate 1 μg/cm^2) [%] | efficacy (dead or moribund ticks) ([12]; application rate 5 μg/cm^2) [%] | efficacy in % ([10]; application rate 100 g/ha) [%] | efficacy in % ([11]; application rate 100 g/ha) [%]
Cn1nc(C(F)(F)C(F)(F)F)c(C(F)(F)F)c1-n1cc(-c2ccc(Cl)c(C(=O)NC3(C(N)=O)CC3)c2)cn1 [Ic-29] | 100 | 100 | 3.07 | 100 | 100 | 100 | 100 | 100 | 100 | 80 | – | – | – | – | – | – | – | –
Cn1nc(C(F)(F)C(F)(F)F)c(C(F)(F)F)c1-n1cc(-c2cc(F)c(F)c(C(=O)NC3CC3)c2)cn1 [Ic-55] | 100 | – | – | – | 100 | 100 | – | – | 100 | – | 100 | 100 | 80 | 100 | – | – | – | –
Cn1nc(C(F)(F)C(F)(F)F)c(C(F)(F)F)c1-n1cc(-c2cc(C(=O)NC3CC3)ccc2F)cn1 [Ic-41] | 100 | – | – | – | 100 | 100 | 100 | 100 | 100 | – | 100 | 100 | 100 | 100 | – | – | – | –
Cn1nc(C(F)(F)C(F)(F)F)c(C(F)(F)F)c1-n1cc(-c2cncc(C(=O)NC3(C#N)CC3)c2)cn1 [Ic-71] | 100 | – | – | – | 100 | 100 | 100 | 100 | 80 | – | 100 | 100 | 100 | 100 | 80 | 100 | – | –
Cn1nc(C(F)(F)C(F)(F)F)c(C(F)(F)F)c1-n1cc(-c2cncc(C(=O)NC3CC3)c2)cn1 [Ic-70] | 100 | – | – | – | 100 | 100 | 100 | 100 | 100 | – | 100 | 100 | – | 90 | 100 | 100 | – | –
Cn1nc(C(F)(F)C(F)(F)F)c(C(F)(F)F)c1-n1cc(-c2ccc(F)c(C(=O)NC3(C#N)CC3)c2F)cn1 [Ic-175] | 100 | – | – | – | 100 | 100 | 100 | 100 | 100 | 90 | 100 | 100 | 100 | – | – | – | – | –
Cn1nc(C(F)(F)C(F)(F)F)c(C(F)(F)F)c1-n1cc(-c2ccc(Cl)c(C(=O)NC3CSC3)c2)cn1 [Ic-28] | 100 | 100 | 4.09 | 100 | 100 | 100 | 100 | 100 | 100 | – | – | – | – | – | – | 100 | 100 | 90
Cn1nc(C(F)(F)F)c(CF)c1-n1cc(-c2ccc(Cl)c(C(=O)NC3CC3)c2)cn1 [Ic-103] | 100 | 100 | 2.89 | 100 | 100 | 100 | – | – | 80 | 90 | – | – | – | – | 100 | 100 | 100 | –
Cc1coc(NC(=O)c2cc(-c3cnn(-c4c(C(F)(F)F)c(C(F)(F)C(F)(F)F)nn4C)c3)ccc2Cl)n1 [Ic-160] | 100 | – | – | – | 100 | 100 | 100 | 100 | 100 | 100 | – | – | – | – | 100 | 100 | – | –
Cc1nnc(NC(=O)c2cc(-c3cnn(-c4c(C(F)(F)F)c(C(F)(F)C(F)(F)F)nn4C)c3)ccc2Cl)o1 [Ic-158] | 100 | – | – | – | 100 | 100 | 100 | 100 | 90 | 100 | – | – | – | – | – | – | – | –
Cn1nccc1NC(=O)c1cc(-c2cnn(-c3c(C(F)(F)F)c(C(F)(F)C(F)(F)F)nn3C)c2)ccc1Cl [Ic-163] | 100 | – | – | – | 100 | 100 | 100 | 100 | 90 | – | 100 | 100 | 100 | 90 | 100 | – | – | –
Cc1ccc(-c2cnn(-c3c(C(F)(F)F)c(C(F)(F)C(F)(F)F)nn3C)c2)cc1C(=O)NC1CC1 [Ic-130] | – | – | 3.76 | 100 | – | – | – | – | – | 100 | – | – | – | – | – | – | – | –
Cn1nc(C(F)(F)C(F)(F)F)c(C(F)(F)F)c1-n1cc(-c2cccc(C(=O)NC3(C#N)CC3)c2F)cn1 [Ic-40] | 100 | – | – | – | 100 | 100 | – | – | 100 | – | 100 | 100 | 100 | 100 | – | – | – | –
